# According to the kinase profiling compilation of Christmann-Franck et al. (2016):
# What was measured:
# Assay in all cases: KINOMEscan competition binding
# Conditions in all cases: compound 10.0 µM
# AAK1 (human) = AAK1 (human) (UniProt Q2M2I8)
# ACVR1 (human) = ACVR1 (human) (UniProt Q04771)
# ACVR1B (human) = ACVR1B (human) (UniProt P36896)
# CAMKK1 (human) = CAMKK1 (human) (UniProt Q8N5S9)
# CDC42BPB (human) = CDC42BPB (human) (UniProt Q9Y5S2)
# CDC42BPG (human) = CDC42BPG (human) (UniProt Q6DT37)
# CLK2 (human) = CLK2 (human) (UniProt P49760)
# CSK (human) = CSK (human) (UniProt P41240)
# CSNK1D (human) = CSNK1D (human) (UniProt P48730)
# EPHA6 (human) = EPHA6 (human) (UniProt Q9UF33)
# ERBB2 (human) = ERBB2 (human) (UniProt P04626)
# ERBB4 (human) = ERBB4 (human) (UniProt Q15303)
# FGFR1 (human) = FGFR1 (human) (UniProt P11362)
# Sequence of FGFR1 (human) (P11362 whole entry, looked up): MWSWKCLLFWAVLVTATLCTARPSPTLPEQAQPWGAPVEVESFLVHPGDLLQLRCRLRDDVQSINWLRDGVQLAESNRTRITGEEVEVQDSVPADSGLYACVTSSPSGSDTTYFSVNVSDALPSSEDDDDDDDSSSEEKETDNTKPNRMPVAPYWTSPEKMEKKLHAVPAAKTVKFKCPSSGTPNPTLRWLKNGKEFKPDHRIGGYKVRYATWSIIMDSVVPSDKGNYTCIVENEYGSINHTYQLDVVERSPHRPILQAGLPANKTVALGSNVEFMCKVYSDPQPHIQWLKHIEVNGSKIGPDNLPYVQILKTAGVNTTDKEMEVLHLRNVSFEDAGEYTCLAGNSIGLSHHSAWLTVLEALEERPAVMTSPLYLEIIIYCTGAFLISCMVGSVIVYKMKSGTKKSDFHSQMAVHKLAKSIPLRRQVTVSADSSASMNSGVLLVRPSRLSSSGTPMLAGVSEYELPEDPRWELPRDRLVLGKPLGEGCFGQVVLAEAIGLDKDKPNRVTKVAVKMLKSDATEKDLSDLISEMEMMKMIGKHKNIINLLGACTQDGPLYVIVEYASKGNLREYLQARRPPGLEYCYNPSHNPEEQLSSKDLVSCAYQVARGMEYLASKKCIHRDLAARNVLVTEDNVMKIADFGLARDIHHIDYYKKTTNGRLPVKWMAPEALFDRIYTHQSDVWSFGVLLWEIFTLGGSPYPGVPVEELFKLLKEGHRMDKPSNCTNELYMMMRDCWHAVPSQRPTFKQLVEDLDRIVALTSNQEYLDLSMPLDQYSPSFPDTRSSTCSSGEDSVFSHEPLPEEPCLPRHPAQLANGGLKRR
# FGFR3 (human) = FGFR3 (human) (UniProt P22607)
# MAP3K4 (human) = MAP3K4 (human) (UniProt Q9Y6R4)
# Sequence of MAP3K4 (human) (Q9Y6R4 whole entry, looked up): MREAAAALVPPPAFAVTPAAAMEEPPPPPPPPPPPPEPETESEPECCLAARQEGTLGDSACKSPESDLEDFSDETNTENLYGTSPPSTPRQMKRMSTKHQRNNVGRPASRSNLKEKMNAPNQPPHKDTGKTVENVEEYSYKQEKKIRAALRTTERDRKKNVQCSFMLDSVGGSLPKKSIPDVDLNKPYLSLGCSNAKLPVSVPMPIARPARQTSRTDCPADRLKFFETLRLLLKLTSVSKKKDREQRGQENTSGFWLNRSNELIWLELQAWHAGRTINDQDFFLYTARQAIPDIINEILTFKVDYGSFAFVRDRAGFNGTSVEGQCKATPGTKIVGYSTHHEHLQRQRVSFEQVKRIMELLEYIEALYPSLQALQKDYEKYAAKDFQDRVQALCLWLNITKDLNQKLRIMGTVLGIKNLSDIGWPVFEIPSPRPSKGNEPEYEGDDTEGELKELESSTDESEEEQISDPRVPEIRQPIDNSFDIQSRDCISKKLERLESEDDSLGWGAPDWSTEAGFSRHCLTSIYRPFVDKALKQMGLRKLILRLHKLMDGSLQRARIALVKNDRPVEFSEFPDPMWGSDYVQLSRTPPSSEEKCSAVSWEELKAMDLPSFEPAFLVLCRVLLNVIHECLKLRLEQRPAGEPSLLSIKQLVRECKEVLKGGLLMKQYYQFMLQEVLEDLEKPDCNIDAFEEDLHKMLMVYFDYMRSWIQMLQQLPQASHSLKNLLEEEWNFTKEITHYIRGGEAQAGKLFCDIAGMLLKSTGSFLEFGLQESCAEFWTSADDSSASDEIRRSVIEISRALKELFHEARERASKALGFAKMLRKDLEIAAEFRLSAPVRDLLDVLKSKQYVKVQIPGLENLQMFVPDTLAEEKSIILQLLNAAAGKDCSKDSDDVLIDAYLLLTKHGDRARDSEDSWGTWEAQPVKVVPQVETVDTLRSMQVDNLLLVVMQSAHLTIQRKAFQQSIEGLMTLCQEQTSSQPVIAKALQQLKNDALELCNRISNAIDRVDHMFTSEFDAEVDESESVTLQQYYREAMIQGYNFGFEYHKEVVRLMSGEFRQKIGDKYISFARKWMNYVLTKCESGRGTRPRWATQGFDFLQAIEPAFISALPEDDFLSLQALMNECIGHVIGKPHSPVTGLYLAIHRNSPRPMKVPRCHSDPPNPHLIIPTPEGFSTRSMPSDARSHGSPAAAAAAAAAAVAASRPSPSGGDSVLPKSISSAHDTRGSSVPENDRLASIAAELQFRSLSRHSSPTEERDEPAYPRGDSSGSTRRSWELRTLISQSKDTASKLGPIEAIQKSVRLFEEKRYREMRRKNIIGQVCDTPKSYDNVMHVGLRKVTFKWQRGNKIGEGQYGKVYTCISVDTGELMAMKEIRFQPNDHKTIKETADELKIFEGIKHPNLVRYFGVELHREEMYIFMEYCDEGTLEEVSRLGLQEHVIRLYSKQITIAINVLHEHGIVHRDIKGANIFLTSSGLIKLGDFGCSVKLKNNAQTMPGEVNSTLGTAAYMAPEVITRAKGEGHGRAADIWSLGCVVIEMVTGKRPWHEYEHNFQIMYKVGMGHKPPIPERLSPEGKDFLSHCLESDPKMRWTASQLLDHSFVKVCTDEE
# MAP4K2 (human) = MAP4K2 (human) (UniProt Q12851)
# MAP4K5 (human) = MAP4K5 (human) (UniProt Q9Y4K4)
# MAPK14 (human) = MAPK14 (human) (UniProt Q16539)
# MAPK7 (human) = MAPK7 (human) (UniProt Q13164)
# MAPKAPK2 (human) = MAPKAPK2 (human) (UniProt P49137)
# NLK (human) = NLK (human) (UniProt Q9UBE8)
# PAK4 (human) = PAK4 (human) (UniProt O96013)
# PDPK1 (human) = PDPK1 (human) (UniProt O15530)
# PIM2 (human) = PIM2 (human) (UniProt Q9P1W9)
# Sequence of PIM2 (human) (Q9P1W9 whole entry, looked up): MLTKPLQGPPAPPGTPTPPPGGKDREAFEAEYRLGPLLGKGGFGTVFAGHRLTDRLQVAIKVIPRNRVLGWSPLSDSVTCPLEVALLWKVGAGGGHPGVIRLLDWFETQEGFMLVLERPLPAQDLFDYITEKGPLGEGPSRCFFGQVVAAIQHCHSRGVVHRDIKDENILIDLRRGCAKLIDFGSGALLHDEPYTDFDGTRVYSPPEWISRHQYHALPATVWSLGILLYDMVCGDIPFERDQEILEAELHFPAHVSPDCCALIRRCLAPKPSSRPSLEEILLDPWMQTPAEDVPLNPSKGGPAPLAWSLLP
# PKN1 (human) = PKN1 (human) (UniProt Q16512)
# PKN2 (human) = PKN2 (human) (UniProt Q16513)
# PLK3 (human) = PLK3 (human) (UniProt Q9H4B4)
# Sequence of PLK3 (human) (Q9H4B4 whole entry, looked up): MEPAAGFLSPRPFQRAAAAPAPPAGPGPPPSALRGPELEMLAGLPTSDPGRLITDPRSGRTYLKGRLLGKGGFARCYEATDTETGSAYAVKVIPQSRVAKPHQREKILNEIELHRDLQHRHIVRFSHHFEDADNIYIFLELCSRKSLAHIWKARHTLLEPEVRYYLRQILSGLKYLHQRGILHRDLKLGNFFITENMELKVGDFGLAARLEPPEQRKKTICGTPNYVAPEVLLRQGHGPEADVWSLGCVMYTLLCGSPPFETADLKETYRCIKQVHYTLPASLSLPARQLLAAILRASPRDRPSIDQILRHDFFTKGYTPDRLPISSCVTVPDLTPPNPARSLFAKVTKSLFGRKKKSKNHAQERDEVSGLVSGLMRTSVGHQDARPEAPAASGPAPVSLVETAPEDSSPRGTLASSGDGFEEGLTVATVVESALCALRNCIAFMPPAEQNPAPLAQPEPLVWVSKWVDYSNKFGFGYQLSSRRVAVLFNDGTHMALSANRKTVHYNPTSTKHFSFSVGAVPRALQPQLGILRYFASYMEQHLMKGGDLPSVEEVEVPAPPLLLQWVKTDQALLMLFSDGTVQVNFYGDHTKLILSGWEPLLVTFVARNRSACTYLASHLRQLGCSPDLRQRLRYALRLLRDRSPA
# PLK4 (human) = PLK4 (human) (UniProt O00444)
# PRKD2 (human) = PRKD2 (human) (UniProt Q9BZL6)
# PRKG1 (human) = PRKG1 (human) (UniProt Q13976)
# PTK2 (human) = PTK2 (human) (UniProt Q05397)
# RPS6KA2 KD1 (human) = RPS6KA2 KD1 (human) (UniProt Q15349)
# RPS6KA2 KD2 (human) = RPS6KA2 KD2 (human) (UniProt Q15349)
# RPS6KA4 KD1 (human) = RPS6KA4 KD1 (human) (UniProt O75676)
# SRPK1 (human) = SRPK1 (human) (UniProt Q96SB4)
# Sequence of SRPK1 (human) (Q96SB4 whole entry, looked up): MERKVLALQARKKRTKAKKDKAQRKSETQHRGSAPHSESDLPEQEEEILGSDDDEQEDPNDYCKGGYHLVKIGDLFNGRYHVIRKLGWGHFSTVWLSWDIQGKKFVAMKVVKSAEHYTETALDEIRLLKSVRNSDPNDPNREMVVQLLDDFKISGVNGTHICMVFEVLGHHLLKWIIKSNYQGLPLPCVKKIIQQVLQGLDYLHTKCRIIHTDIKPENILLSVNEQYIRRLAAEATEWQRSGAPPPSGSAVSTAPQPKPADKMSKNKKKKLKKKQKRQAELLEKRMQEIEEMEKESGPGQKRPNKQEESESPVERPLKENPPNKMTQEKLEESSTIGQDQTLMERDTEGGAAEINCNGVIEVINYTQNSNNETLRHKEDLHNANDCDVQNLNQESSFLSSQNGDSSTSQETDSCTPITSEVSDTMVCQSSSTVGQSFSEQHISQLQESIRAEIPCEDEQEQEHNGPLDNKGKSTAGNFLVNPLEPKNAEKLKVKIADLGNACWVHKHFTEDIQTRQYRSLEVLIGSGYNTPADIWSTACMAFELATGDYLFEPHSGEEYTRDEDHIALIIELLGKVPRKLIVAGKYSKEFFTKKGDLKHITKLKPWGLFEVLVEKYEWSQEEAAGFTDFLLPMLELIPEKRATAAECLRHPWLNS
# STK32B (human) = STK32B (human) (UniProt Q9NY57)
# TGFBR1 (human) = TGFBR1 (human) (UniProt P36897)
# Sequence of TGFBR1 (human) (P36897 whole entry, looked up): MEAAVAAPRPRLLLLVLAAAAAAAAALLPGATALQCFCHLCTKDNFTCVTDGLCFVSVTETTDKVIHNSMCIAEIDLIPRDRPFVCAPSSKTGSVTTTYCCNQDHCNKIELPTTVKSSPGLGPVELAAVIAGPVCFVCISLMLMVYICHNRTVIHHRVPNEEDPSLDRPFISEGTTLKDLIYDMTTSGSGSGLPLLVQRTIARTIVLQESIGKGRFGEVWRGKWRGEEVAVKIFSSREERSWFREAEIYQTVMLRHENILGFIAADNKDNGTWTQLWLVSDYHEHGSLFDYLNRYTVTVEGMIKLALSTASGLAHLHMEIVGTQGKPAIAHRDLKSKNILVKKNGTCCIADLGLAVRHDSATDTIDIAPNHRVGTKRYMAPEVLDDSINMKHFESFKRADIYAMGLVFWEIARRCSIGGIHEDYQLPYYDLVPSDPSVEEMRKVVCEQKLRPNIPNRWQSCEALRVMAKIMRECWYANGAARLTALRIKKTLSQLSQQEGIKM
# TLK2 (human) = TLK2 (human) (UniProt Q86UE8)
# ULK3 (human) = ULK3 (human) (UniProt Q6PHR2)
# EPHA2 (human) = EPHA2 (human) (UniProt P29317)
# Sequence of ACVR1B (human) (P36896 whole entry, looked up): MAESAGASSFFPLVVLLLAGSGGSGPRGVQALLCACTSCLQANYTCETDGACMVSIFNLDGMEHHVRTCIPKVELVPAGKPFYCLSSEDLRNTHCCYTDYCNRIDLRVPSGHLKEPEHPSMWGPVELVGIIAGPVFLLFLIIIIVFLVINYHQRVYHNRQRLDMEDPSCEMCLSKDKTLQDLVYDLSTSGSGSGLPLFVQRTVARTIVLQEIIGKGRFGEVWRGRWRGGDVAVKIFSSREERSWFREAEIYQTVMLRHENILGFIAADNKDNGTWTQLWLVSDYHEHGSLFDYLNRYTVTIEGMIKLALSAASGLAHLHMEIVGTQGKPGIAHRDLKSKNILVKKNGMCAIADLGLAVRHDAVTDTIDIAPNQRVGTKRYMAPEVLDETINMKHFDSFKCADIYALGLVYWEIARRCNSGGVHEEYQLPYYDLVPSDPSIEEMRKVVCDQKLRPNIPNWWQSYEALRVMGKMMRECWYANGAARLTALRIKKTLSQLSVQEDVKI
SMILES,"kinase still bound, per cent of control (AAK1 (human)) [%]","kinase still bound, per cent of control (ACVR1 (human)) [%]","kinase still bound, per cent of control (ACVR1B (human)) [%]","kinase still bound, per cent of control (CAMKK1 (human)) [%]","kinase still bound, per cent of control (CDC42BPB (human)) [%]","kinase still bound, per cent of control (CDC42BPG (human)) [%]","kinase still bound, per cent of control (CLK2 (human)) [%]","kinase still bound, per cent of control (CSK (human)) [%]","kinase still bound, per cent of control (EPHA6 (human)) [%]","kinase still bound, per cent of control (ERBB4 (human)) [%]","kinase still bound, per cent of control (FGFR1 (human)) [%]","kinase still bound, per cent of control (FGFR3 (human)) [%]","kinase still bound, per cent of control (MAP3K4 (human)) [%]","kinase still bound, per cent of control (MAP4K2 (human)) [%]","kinase still bound, per cent of control (MAPK14 (human)) [%]","kinase still bound, per cent of control (MAPK7 (human)) [%]","kinase still bound, per cent of control (MAPKAPK2 (human)) [%]","kinase still bound, per cent of control (NLK (human)) [%]","kinase still bound, per cent of control (PAK4 (human)) [%]","kinase still bound, per cent of control (PDPK1 (human)) [%]",also measured
COc1cc(N2CCN(C)CC2)ccc1Nc1nc(N)c(C(=O)c2c(Cl)cccc2Cl)s1,61,100,100,6.3,100,100,13,90,99,100,94,99,100,77,94,14,100,85,100,100,"kinase still bound, per cent of control (CSNK1D (human)): 100%; kinase still bound, per cent of control (ERBB2 (human)): 100%; kinase still bound, per cent of control (MAP4K5 (human)): 78%; kinase still bound, per cent of control (PIM2 (human)): 100%; kinase still bound, per cent of control (PKN1 (human)): 100%; kinase still bound, per cent of control (PKN2 (human)): 98%; kinase still bound, per cent of control (PLK3 (human)): 88%; kinase still bound, per cent of control (PLK4 (human)): 100%; kinase still bound, per cent of control (PRKD2 (human)): 78%; kinase still bound, per cent of control (PRKG1 (human)): 100%; kinase still bound, per cent of control (PTK2 (human)): 62%; kinase still bound, per cent of control (RPS6KA2 KD1 (human)): 84%; kinase still bound, per cent of control (RPS6KA2 KD2 (human)): 2.9%; kinase still bound, per cent of control (RPS6KA4 KD1 (human)): 100%; kinase still bound, per cent of control (SRPK1 (human)): 100%; kinase still bound, per cent of control (STK32B (human)): 76%; kinase still bound, per cent of control (TGFBR1 (human)): 100%; kinase still bound, per cent of control (TLK2 (human)): 93%; kinase still bound, per cent of control (ULK3 (human)): 100%"
O=C(O)c1ccc(Nc2ncc3c(n2)-c2ccc(Cl)cc2C(c2c(F)cccc2F)=NC3)cc1,90,100,94,89,69,92,7.4,15,14,52,14,9,36,88,93,100,100,82,90,35,"kinase still bound, per cent of control (MAP4K5 (human)): 96%; kinase still bound, per cent of control (PIM2 (human)): 36%; kinase still bound, per cent of control (PKN1 (human)): 83%; kinase still bound, per cent of control (PKN2 (human)): 79%; kinase still bound, per cent of control (PLK3 (human)): 18%; kinase still bound, per cent of control (PLK4 (human)): 14%; kinase still bound, per cent of control (PRKD2 (human)): 92%; kinase still bound, per cent of control (PRKG1 (human)): 100%; kinase still bound, per cent of control (PTK2 (human)): 23%; kinase still bound, per cent of control (RPS6KA2 KD1 (human)): 100%; kinase still bound, per cent of control (RPS6KA2 KD2 (human)): 64%; kinase still bound, per cent of control (RPS6KA4 KD1 (human)): 100%; kinase still bound, per cent of control (SRPK1 (human)): 100%; kinase still bound, per cent of control (STK32B (human)): 38%; kinase still bound, per cent of control (TGFBR1 (human)): 98%; kinase still bound, per cent of control (TLK2 (human)): 83%; kinase still bound, per cent of control (ULK3 (human)): 57%"
CCOc1cc2ncc(C#N)c(Nc3ccc(OCc4ccccn4)c(Cl)c3)c2cc1NC(=O)/C=C/CN(C)C,68,100,100,100,100,100,100,13,99,0,100,98,4.8,5.2,91,100,89,95,93,88,"kinase still bound, per cent of control (CSNK1D (human)): 60%; kinase still bound, per cent of control (EPHA2 (human)): 94%; kinase still bound, per cent of control (ERBB2 (human)): 0%; kinase still bound, per cent of control (MAP4K5 (human)): 0.85%; kinase still bound, per cent of control (PIM2 (human)): 100%; kinase still bound, per cent of control (PKN1 (human)): 100%; kinase still bound, per cent of control (PKN2 (human)): 72%; kinase still bound, per cent of control (PLK3 (human)): 94%; kinase still bound, per cent of control (PLK4 (human)): 82%; kinase still bound, per cent of control (PRKD2 (human)): 50%; kinase still bound, per cent of control (PRKG1 (human)): 94%; kinase still bound, per cent of control (PTK2 (human)): 65%; kinase still bound, per cent of control (RPS6KA2 KD1 (human)): 88%; kinase still bound, per cent of control (RPS6KA2 KD2 (human)): 100%; kinase still bound, per cent of control (RPS6KA4 KD1 (human)): 100%; kinase still bound, per cent of control (SRPK1 (human)): 100%; kinase still bound, per cent of control (STK32B (human)): 73%; kinase still bound, per cent of control (TGFBR1 (human)): 100%; kinase still bound, per cent of control (ULK3 (human)): 100%"
CC[C@@H]1C(=O)N(C)c2cnc(Nc3ccc(C(=O)NC4CCN(C)CC4)cc3OC)nc2N1C1CCCC1,100,100,100,1.9,100,100,5.4,100,100,100,100,100,100,100,100,19,100,100,100,100,"kinase still bound, per cent of control (EPHA2 (human)): 100%; kinase still bound, per cent of control (ERBB2 (human)): 100%; kinase still bound, per cent of control (PIM2 (human)): 100%; kinase still bound, per cent of control (PKN1 (human)): 100%; kinase still bound, per cent of control (PLK3 (human)): 0%; kinase still bound, per cent of control (PLK4 (human)): 100%; kinase still bound, per cent of control (PRKD2 (human)): 16%; kinase still bound, per cent of control (PRKG1 (human)): 100%; kinase still bound, per cent of control (PTK2 (human)): 2.4%; kinase still bound, per cent of control (RPS6KA2 KD1 (human)): 100%; kinase still bound, per cent of control (RPS6KA2 KD2 (human)): 7.2%; kinase still bound, per cent of control (RPS6KA4 KD1 (human)): 100%; kinase still bound, per cent of control (SRPK1 (human)): 100%; kinase still bound, per cent of control (STK32B (human)): 100%; kinase still bound, per cent of control (TGFBR1 (human)): 100%; kinase still bound, per cent of control (TLK2 (human)): 100%; kinase still bound, per cent of control (ULK3 (human)): 100%"
